Several values for one entry are separate records, joined by “and”; a condition that tells them apart may be missing. Identical values can stand only once.
System: 485368-065-R4-J2-PDC spheroids with HUVEC/MSC, viability
Assay: Anticancer human tumor 485368-065-R4-J2-PDC patient-derived pancreatic carcinoma cell line growth inhibition [CLK]
Settings: for viability, T/C: stronger effect = lower value
Source text: A high-throughput screen of multi-cell type tumor spheroids was designed to identify active combinations of […] and targeted small molecules. Complex spheroids include a stromal component modeled by human endothelial cells (HUVEC) and fibroblasts modeled by human mesenchymal stem cells (MSCs). The concentration ranges selected for each drug and investigational agent were based upon clinically achievable concentrations if the clinical Cmax of the agent was known.
Compounds. The drugs and investigational agents: cirtuvivint (SM08502; NSC835563), CC-671 (NSC850746), vemurafenib (NSC761431), tapotoclax (NSC804041), sotorasib (NSC818433), adagrasib (NSC831453), MRTX-1133 (NSC836407), BAY2416964 (NSC825713), copanlisib (NSC816437), inavolisib (NSC800729), abemaciclib (NSC768073), osimertinib (NSC779217), entinostat (NSC756642), eltanexor (KPT-8602, NSC794443), venetoclax (NSC766270), ceralasertib (NSC777638), bortezomib (NSC756655), olaparib (NSC753686), talazoparib (NSC767125), alisertib (NSC759677), peposertib (NSC802822), gemcitabine (NSC613327), 5-fluorouracil (NSC19893), SN-38 (NSC673596), oxaliplatin (NSC266046), paclitaxel (NSC125973), and doxorubicin (NSC123127), were obtained from the National Cancer Institute (NCI) Developmental Therapeutics Program Chemical Repository. The FDA-approved anticancer drug set is available from the Developmental Therapeutics Program at https://dtp.cancer.gov/organization/dscb/obtaining/available plates.htm. […] The stock solutions were prepared in dimethyl sulfoxide (DMSO, Sigma-Aldrich, St. Louis, MO, cat. D2650), except for the platinum complexes which were prepared in saline (Quality Biological, Gaithersburg, MD, cat. 114-055-101), at 800-fold the tested concentration and stored at -70 degrees C prior to their use. All drugs and investigational agents were tested over a range starting from a high concentration at or near the clinical Cmax and decreasing in half-log increments. If the clinical Cmax for an agent had not been determined, the highest concentration tested was 10 microM.
Cell Culture. All cells were maintained in an incubator at 37 degrees C and 5% CO2 with 95% humidity. The PDC lines were cultured according to standard operating procedures established by the NCI PDMR. Briefly, all PDCs were thawed and cultured in Matrigel-coated flasks prepared with a working solution of 1X Ham's F-12 nutrient mix, without supplementation (Invitrogen, Waltham, MA, cat. 11765054), 100 U/mL penicillin-streptomycin (Invitrogen, cat. 15140122), and 2.5% Matrigel (Corning Inc., Corning, NY, cat. 354248) for the first three passages. The 947758-054-R-J2-PDC line was cultured in 6B/Colon 1A media, which includes advanced DMEM/F-12 (Thermo Fisher Scientific, cat. 12634028), 10 mM HEPES (Thermo Fisher Scientific, cat. 15630080), 1X GlutaMAX supplement (Thermo Fisher Scientific, cat. 35050061), 0.1 mg/mL primocin (InvivoGen, cat. ant-pm-2), 10% defined fetal bovine serum, heat inactivated (HyClone Laboratories Inc., cat. SH30070.03HI), 1.25 mM N-Acetyl-L-cysteine (Sigma-Aldrich, cat. A9165), 10 mM nicotinamide (Sigma-Aldrich, cat. N0636), 1X B-27 supplement (Thermo Fisher Scientific, cat. 17504044), 1X N-2 supplement (Thermo Fisher Scientific, cat. 17502048), and 10 microM Y-27632 dihydrochloride (Tocris Bioscience, cat. 1254). The 876862-298-R-J1-PDC was cultured in 6E media, which includes all 6B/Colon 1A media components plus 50% L-WRN conditioned media (ATCC, cat. CRL-3276), 50 ng/mL recombinant human EGF recombinant protein (hEGF; Thermo Fisher Scientific, cat. PHG0311), 10 ng/mL recombinant human fibroblast growth factor 10 (hGFG-10; PeproTech, cat. 100-26), 1 ng/mL recombinant human fibroblast growth factor 2 (hFGF-2; PeproTech, cat. 100-18B), and 1 µM prostaglandin E2 (PGE2; Tocris, cat. 2296). The 227483-062-R1-J1-PDC line was cultured in Panc media, containing all 6E components except hFGF-2, with the addition of 500 nM SB-431542 (Selleckchem, cat. S1067) and 10 nM gastrin (Tocris, cat. 3006). […]
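Note: spheroids exposed to compounds for seven days.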
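Throughout, for viability, T/C: 100% = DMSO vehicle control wells.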

## COc1ccc([C@@H](O)c2cc(-c3ncnc4cc(N5CCOCC5)ccc34)c(F)cc2Cl)nn1 + CNC(=O)c1ccc(Nc2nc(OC3CCCC3)c3c(-c4ccc5nc(C)oc5c4)c[nH]c3n2)c(OC)c1
Curve of first compound, second compound 0.0316 µM
  IC50: > 10 µM
Curve of first compound, second compound 0.1 µM
  IC50: > 10 µM
Curve of first compound, second compound 0.316 µM
  IC50: > 10 µM
Curve of first compound, second compound 1 µM
  IC50: > 10 µM
Curve of first compound, second compound 3.16 µM
  IC50: > 10 µM
Curve of first compound, second compound 10 µM
  IC50: > 10 µM
Second compound 0.0316 µM, first compound 0.0316 µM
  viability, T/C: 84.1%
Second compound 0.0316 µM, first compound 0.1 µM
  viability, T/C: 96.7%
Second compound 0.0316 µM, first compound 0.316 µM
  viability, T/C: 96.1%
Second compound 0.0316 µM, first compound 1 µM
  viability, T/C: 103%
Second compound 0.0316 µM, first compound 3.16 µM
  viability, T/C: 122%
Second compound 0.0316 µM, first compound 10 µM
  viability, T/C: 83.7%
Second compound 0.1 µM, first compound 0.0316 µM
  viability, T/C: 86.5%
Second compound 0.1 µM, first compound 0.1 µM
  viability, T/C: 99.7%
Second compound 0.1 µM, first compound 0.316 µM
  viability, T/C: 95.1%
Second compound 0.1 µM, first compound 1 µM
  viability, T/C: 103%
Second compound 0.1 µM, first compound 3.16 µM
  viability, T/C: 96.6%
Second compound 0.1 µM, first compound 10 µM
  viability, T/C: 87.6%
Second compound 0.316 µM, first compound 0.0316 µM
  viability, T/C: 82.2%
Second compound 0.316 µM, first compound 0.1 µM
  viability, T/C: 77.8%
Second compound 0.316 µM, first compound 0.316 µM
  viability, T/C: 86.6%
Second compound 0.316 µM, first compound 1 µM
  viability, T/C: 73.6%
Second compound 0.316 µM, first compound 3.16 µM
  viability, T/C: 81.5%
Second compound 0.316 µM, first compound 10 µM
  viability, T/C: 66.5%
Second compound 1 µM, first compound 0.0316 µM
  viability, T/C: 69.8%
Second compound 1 µM, first compound 0.1 µM
  viability, T/C: 70.9%
Second compound 1 µM, first compound 0.316 µM
  viability, T/C: 72.1%
Second compound 1 µM, first compound 1 µM
  viability, T/C: 67.6%
Second compound 1 µM, first compound 3.16 µM
  viability, T/C: 65.5%
Second compound 1 µM, first compound 10 µM
  viability, T/C: 59.2%
Second compound 3.16 µM, first compound 0.0316 µM
  viability, T/C: 68.3%
Second compound 3.16 µM, first compound 0.1 µM
  viability, T/C: 62.7%
Second compound 3.16 µM, first compound 0.316 µM
  viability, T/C: 68.8%
Second compound 3.16 µM, first compound 1 µM
  viability, T/C: 57%
Second compound 3.16 µM, first compound 3.16 µM
  viability, T/C: 54.9%
Second compound 3.16 µM, first compound 10 µM
  viability, T/C: 51.4%
Second compound 10 µM, first compound 0.0316 µM
  viability, T/C: 63.7%
Second compound 10 µM, first compound 0.1 µM
  viability, T/C: 70.4%
Second compound 10 µM, first compound 0.316 µM
  viability, T/C: 65.4%
Second compound 10 µM, first compound 1 µM
  viability, T/C: 57.5%
Second compound 10 µM, first compound 3.16 µM
  viability, T/C: 54.8%
Second compound 10 µM, first compound 10 µM
  viability, T/C: 50.1%

## C#Cc1c(F)ccc2cc(O)cc(-c3ncc4c(N5CC6CCC(C5)N6)nc(OCC56CCCN5CC(F)C6)nc4c3F)c12 (centres undefined)
Compound 0.0316 µM
  viability, T/C: 99.6% and 90.9%
Compound 0.1 µM
  viability, T/C: 97.5% and 111%
Compound 0.316 µM
  viability, T/C: 102% and 103%
Compound 1 µM
  viability, T/C: 98.2% and 102%
Compound 3.16 µM
  viability, T/C: 117% and 107%
Compound 10 µM
  viability, T/C: 114% and 106%
Curve of compound
  IC50: > 10 µM
